Measured values taken from PubChem BioAssay (NCI).
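Five compound concentrations were applied to cells in 96-well plates for 48 hours; endpoints were derived by simple linear interpolation of the resulting dose-response curve. Here, GI50 denotes the concentration required for 50% inhibition of growth. TGI: total growth inhibition.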

What was measured:
Test in all cases: inhibition of tumour cell growth, NCI panel, 48 h
[1] = tested on: DMS 273 small cell lung
[2] = tested on: HOP-92 NSCLC
[3] = tested on: K-562 leukemia
[4] = tested on: KM12 colon
[5] = tested on: LXFL 529 NSCLC
[6] = tested on: NCI-H23 lung
[7] = tested on: SF-295 CNS
[8] = tested on: SK-MEL-28 melanoma
[9] = tested on: SK-MEL-5 melanoma
[10] = tested on: T-47D breast

| SMILES | TGI [1] | TGI [2] | TGI [3] | TGI [4] | TGI [5] | TGI [6] | TGI [7] | TGI [8] | TGI [9] | GI50 [1] | GI50 [2] | GI50 [3] | GI50 [4] | GI50 [5] | GI50 [6] | GI50 [7] | GI50 [8] | GI50 [9] | GI50 [10] | TGI [10] |
| --- | --- | --- | --- | --- | --- | --- | --- | --- | --- | --- | --- | --- | --- | --- | --- | --- | --- | --- | --- | --- |
| CN(C)CCNC(=O)c1ccc(C(=O)NCCN(C)C)c2nc3ccccc3cc12 | 4.76 µM | 7.99 µM | > 30 µM | 4.14 µM | 12.3 µM | 3.8 µM | 16.4 µM | 3.89 µM | 4.34 µM |  |  |  |  |  |  |  |  |  |  |  |
| CCCCCCCCC(=O)N(C)C1C2CN3CCC(O2)C13 (stereo not given) | > 100 µM |  | > 100 µM | > 100 µM | > 100 µM | > 100 µM | > 100 µM | > 100 µM | > 100 µM |  |  |  |  |  |  |  |  |  |  |  |
| C/C([O-])=C1\Cc2ccccc2C1=O.C/C([O-])=C1\Cc2ccccc2C1=O.CC[O-].CC[O-].[Ti+4] | 31.4 µM | 55.4 µM | > 78.6 µM | 46.1 µM | 35.5 µM | 62.2 µM | 32 µM | 38.1 µM | > 57.8 µM | 8.38 µM | 18.7 µM | 20.3 µM | 17.3 µM | 12.3 µM | 20.2 µM | 14.5 µM | 17.7 µM | 19.3 µM | 15.5 µM | 92.4 µM |
| N#C/C(=C1\NN=C(N)C(c2ccc(Cl)cc2)=C1O)c1ccc(Cl)cc1 | > 100 µM | > 100 µM | > 100 µM | > 100 µM | > 100 µM | > 100 µM | > 100 µM | > 100 µM |  |  |  |  |  |  |  |  |  |  |  |  |
| O=C1OC(CC(=O)c2ccc(Cl)cc2Cl)C(Cl)=C1Cl (stereo not given) | > 100 µM | 39.7 µM | > 76.7 µM | > 100 µM | 32.1 µM | > 65.7 µM | > 100 µM | 37.2 µM | > 66.3 µM |  |  |  |  |  |  |  |  |  |  |  |
| Cc1cccc(NC(=O)c2cc3cc(N=Nc4ccccc4Cl)ccc3oc2=O)c1 | > 100 µM | 76.1 µM | > 100 µM | 48.4 µM | > 100 µM | 59.5 µM | > 100 µM | > 100 µM | 47.1 µM |  |  |  |  |  |  |  |  |  |  |  |
| O=C(/C=C/c1ccc(Cl)c(Cl)c1)c1ccc(F)cc1 | 26.9 µM | 72.1 µM | 18.7 µM | 21.9 µM | 27.7 µM | 83.2 µM | 41.6 µM | 39.5 µM | 41 µM |  |  |  |  |  |  |  |  |  |  |  |
| Cc1cc(C)c2c(c1)Nc1ccccc1P2c1ccccc1 (stereo not given) | 50.7 µM | 58.9 µM | > 100 µM |  | > 100 µM | 83.8 µM | 56.3 µM | > 100 µM |  |  |  |  |  |  |  |  |  |  |  |  |
| Nc1c(Br)c(=O)[nH]c(=O)n1COCCO | > 100 µM | > 100 µM | > 100 µM | > 100 µM | > 100 µM | > 100 µM | > 100 µM | > 100 µM | > 100 µM |  |  |  |  |  |  |  |  |  |  |  |
| O=c1c2cc(Br)ccc2nc(-c2ccccc2Cl)n1NCC1(O)OCC(O)C(O)C1O (stereo not given) | > 100 µM |  | > 100 µM | > 100 µM | > 100 µM | > 100 µM | > 100 µM | > 100 µM | > 100 µM |  |  |  |  |  |  |  |  |  |  |  |
| C=C(C)C(=O)OC1CC2=CC(CC3(C)OC3C3OC(=O)C(=C)C13)OC2=O (stereo not given) | 28.3 µM | 7.35 µM | 9.8 µM | 32.1 µM | 5.94 µM | 30.9 µM | 32.7 µM | 26.2 µM | 31 µM |  |  | 2.62 µM |  |  |  |  |  |  |  | 22.6 µM |
| Nc1ccn(CCO)c(=O)n1 | > 100 µM | > 100 µM | > 100 µM | > 100 µM | > 100 µM |  | > 100 µM | > 100 µM | > 100 µM |  |  |  |  |  |  |  |  |  |  |  |
